Reference: US10112899B2 (ViiV HEALTHCARE UK LIMITED, priority 2014, dated 2018)

System: HIV in the HTLV-1 transformed cell line MT-4
Test: organism not typed
Type: cell-based
Details: MT4, 96 h, MT-4 cells; luciferase/cell titer glo readout after 96 hours; 10 point dose response

SMILES | IC50 [nM]
Cc1c(-c2c(C)c3c(c(C)c2[C@H](OC(C)(C)C)C(=O)O)CN(C(=O)N2CCCC(F)(F)C2)C3)cc(F)c2c1CCCO2 (atropisomer, axis not shown) [Example 102, (S)-2-(tert-butoxy)-2-((R)-2-(3,3-difluoropiperidine-1-carbonyl)-6-(8-fluoro-5-methylchroman-6-yl)-4,7-dimethylisoindolin-5-yl)acetic acid] | 2
Cc1c(-c2c(C)c3c(c(C)c2[C@H](OC(C)(C)C)C(=O)O)CN(Cc2cccc(F)c2)C3)cc(F)c2c1CCCO2 (atropisomer, axis not shown; (M)) [Example 8, (2S)(M)-2-(tert-Butoxy)-2-(-6-(8-fluoro-5-methylchroman-6-yl)-2-(3-fluorobenzyl)-4,7-dimethylisoindolin-5-yl)acetic acid] | 5
Cc1c(-c2c(C)c3c(c(C)c2[C@H](OC(C)(C)C)C(=O)O)CN(C(=O)N2CCC(F)(F)C2)C3)cc(F)c2c1CCCO2 (atropisomer, axis not shown; (M)) [Example 100, (2S)-2-(tert-Butoxy)-2-(2-(3,3-difluoropyrrolidine-1-carbonyl)-6-(M)-(8-fluoro-5-methylchroman-6-yl)-4,7-dimethylisoindolin-5-yl)acetic acid] | 5
Cc1c(-c2c(C)c3c(c(C)c2[C@H](OC(C)(C)C)C(=O)O)CN(C(=O)N2CCCCC2)C3)cc(F)c2c1CCCO2 (atropisomer, axis not shown; (M)) [Example 101, (2S)-2-(tert-butoxy)-2-(6-(M)-(8-fluoro-5-methylchroman-6-yl)-4,7-dimethyl-2-(piperidine-1-carbonyl)isoindolin-5-yl)acetic acid] | 3
Cc1c(-c2c(C)c3c(c(C)c2[C@H](OC(C)(C)C)C(=O)O)CN(C(=O)c2cccc(F)c2)C3)cc(F)c2c1CCCO2 (atropisomer, axis not shown; (M)) [Example 103, (2S)-2-(tert-butoxy)-2-((M)6-(8-fluoro-5-methylchroman-6-yl)-2-(3-fluorobenzoyl)-4,7-dimethylisoindolin-5-yl)acetic acid] | 2
Cc1c(-c2c(C)c3c(c(C)c2[C@H](OC(C)(C)C)C(=O)O)CN(C(=O)CC(C)(C)C)C3)cc(F)c2c1CCCO2 (atropisomer, axis not shown; (M)) [Example 104, (S)-2-(tert-butoxy)-2-((M)-2-(3,3-dimethylbutanoyl)-6-(8-fluoro-5-methylchroman-6-yl)-4,7-dimethylisoindolin-5-yl)acetic acid] | 2
Cc1c(-c2c(C)c3c(c(C)c2[C@H](OC(C)(C)C)C(=O)O)CN(C(=O)C2CCCCC2)C3)cc(F)c2c1CCCO2 (atropisomer, axis not shown; (M)) [Example 137, (S)-2-(tert-butoxy)-2-((M)-2-(cyclohexanecarbonyl)-6-(8-fluoro-5-methylchroman-6-yl)-4,7-dimethylisoindolin-5-yl)acetic acid] | 2
Cc1c(-c2c(C)c3c(c(C)c2[C@H](OC(C)(C)C)C(=O)O)CN(C(=O)c2cccc4c2OCO4)C3)cc(F)c2c1CCCO2 (atropisomer, axis not shown; (M)) [Example 138, (S)-2-((M)-2-(benzo[d][1,3]dioxole-4-carbonyl)-6-(8-fluoro-5-methylchroman-6-yl)-4,7-dimethylisoindolin-5-yl)-2-(tert-butoxy)acetic acid] | 2
COc1cccc(C(=O)N2Cc3c(C)c(-c4cc(F)c5c(c4C)CCCO5)c([C@H](OC(C)(C)C)C(=O)O)c(C)c3C2)c1C (atropisomer, axis not shown; (M)) [Example 139, (S)-2-(tert-butoxy)-2-((M)-6-(8-fluoro-5-methylchroman-6-yl)-2-(3-methoxy-2-methylbenzoyl)-4,7-dimethylisoindolin-5-yl)acetic acid] | 37
COc1cc(F)cc(C(=O)N2Cc3c(C)c(-c4cc(F)c5c(c4C)CCCO5)c([C@H](OC(C)(C)C)C(=O)O)c(C)c3C2)c1 (atropisomer, axis not shown; (M)) [Example 140, (S)-2-(tert-butoxy)-2-((M)-2-(3-fluoro-5-methoxybenzoyl)-6-(8-fluoro-5-methylchroman-6-yl)-4,7-dimethylisoindolin-5-yl)acetic acid] | 2
Cc1c(F)cccc1C(=O)N1Cc2c(C)c(-c3cc(F)c4c(c3C)CCCO4)c([C@H](OC(C)(C)C)C(=O)O)c(C)c2C1 (atropisomer, axis not shown; (M)) [Example 141, (S)-2-(tert-butoxy)-2-((M)-2-(3-fluoro-2-methylbenzoyl)-6-(8-fluoro-5-methylchroman-6-yl)-4,7-dimethylisoindolin-5-yl)acetic acid] | 4
Cc1ncccc1C(=O)N1Cc2c(C)c(-c3cc(F)c4c(c3C)CCCO4)c([C@H](OC(C)(C)C)C(=O)O)c(C)c2C1 (atropisomer, axis not shown; (M)) [Example 142, (S)-2-(tert-butoxy)-2-((M)-6-(8-fluoro-5-methylchroman-6-yl)-4,7-dimethyl-2-(2-methylnicotinoyl)isoindolin-5-yl)acetic acid] | 31
COc1cncc(C(=O)N2Cc3c(C)c(-c4cc(F)c5c(c4C)CCCO5)c([C@H](OC(C)(C)C)C(=O)O)c(C)c3C2)c1 (atropisomer, axis not shown; (M)) [Example 143, (S)-2-(tert-butoxy)-2-((M)-6-(8-fluoro-5-methylchroman-6-yl)-2-(5-methoxynicotinoyl)-4,7-dimethylisoindolin-5-yl)acetic acid] | 4
Cc1ccc(C(=O)N2Cc3c(C)c(-c4cc(F)c5c(c4C)CCCO5)c([C@H](OC(C)(C)C)C(=O)O)c(C)c3C2)cc1F (atropisomer, axis not shown; (M)) [Example 144, (S)-2-(tert-butoxy)-2-((M)-2-(3-fluoro-4-methylbenzoyl)-6-(8-fluoro-5-methylchroman-6-yl)-4,7-dimethylisoindolin-5-yl)acetic acid] | 5
Cc1cc(C(=O)N2Cc3c(C)c(-c4cc(F)c5c(c4C)CCCO5)c([C@H](OC(C)(C)C)C(=O)O)c(C)c3C2)ccc1F (atropisomer, axis not shown; (M)) [Example 145, (S)-2-(tert-butoxy)-2-((M)-2-(4-fluoro-3-methylbenzoyl)-6-(8-fluoro-5-methylchroman-6-yl)-4,7-dimethylisoindolin-5-yl)acetic acid] | 2
Cc1ccccc1C(=O)N1Cc2c(C)c(-c3cc(F)c4c(c3C)CCCO4)c([C@H](OC(C)(C)C)C(=O)O)c(C)c2C1 (atropisomer, axis not shown; (M)) [Example 146, (S)-2-(tert-butoxy)-2-((M)-6-(8-fluoro-5-methylchroman-6-yl)-4,7-dimethyl-2-(2-methylbenzoyl)isoindolin-5-yl)acetic acid] | 3
Cc1c(-c2c(C)c3c(c(C)c2[C@H](OC(C)(C)C)C(=O)O)CN(C(=O)c2cccc(Cl)c2)C3)cc(F)c2c1CCCO2 (atropisomer, axis not shown; (M)) [Example 147, (S)-2-(tert-butoxy)-2-((M)-2-(3-chlorobenzov)-6-(8-fluoro-5-methylchroman-6-yl)-4,7-dimethylisoindolin-5-yl)acetic acid] | 13
